# Compound: CCCS(=O)(=O)Nc1ccc(F)c(C(=O)c2c[nH]c3ncc(-c4ccc(Cl)cc4)cc23)c1F [Vemurafenib] + COc1cccc2cc(-c3nc([C@H]4CC[C@H](C(=O)O)CC4)n4ncnc(N)c34)[nH]c12 [OSI-027] (partner 0.5 µM)
# Assay: relative viability (nuclei count vs DMSO), 5 days (fraction); higher = more cells survive
# Settings: first compound 0.03162 µM
# Outline: (§1)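 Lung cancer cell lines in 1536-well plates were dosed by pin tool the day after seeding, either with one drug alone or with a fixed anchor-drug dose plus five library-drug doses (not always all listed) in √10 steps. After 5 days, cells were fixed and their nuclei stained in one step (final 0.05% Triton X-100, 1% formaldehyde, 1 ug/ml Hoechst), then counted on 4× images. Relative viability is the nuclei count in treated wells divided by that in vehicle wells. Values are medians of duplicate plates.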
row,Cell Line,relative viability
1,NCI-H2126,0.606
2,EPLC-272H,0.268
3,NCI-H1755,0.696
4,NCI-H2023,0.316
5,NCI-H1623,0.405
6,NCI-H1793,0.274
7,NCI-H2342,0.621
8,H3255,0.582
9,NCI-H1975,0.647
10,PC-14,0.822
11,NCI-H1437,0.857
12,HOP-62,0.702
13,HCC-44,0.419
14,BEN,0.27
15,LOU-NH91,0.72
16,NCI-H661,0.673
17,NCI-H1651,0.733
18,PC-3 [JPC-3],0.698
19,SW 1573,0.582
20,LK-2,0.194
21,NCI-H2405,0.611

row,Cell Line,relative viability
1,NCI-H1648,0.261
2,NCI-H1993,0.523
3,ChaGo-K-1,0.535
4,NCI-H1355,0.41
5,HCC-366,0.886
6,NCI-H1915,0.585
7,NCI-H838,0.367
8,A-427,0.488
9,NCI-H2009,0.606
10,ABC-1,0.417
11,SK-LU-1,0.315
12,NCI-H522,0.778
13,COR-L23,0.662
14,NCI-H1563,0.693
15,NCI-H1792,0.705
16,NCI-H1395,0.606
17,COR-L 105,0.649
18,NCI-H520,0.236
19,NCI-H2228,0.548
20,SW 900,0.527
21,SK-MES-1,0.56

# Same assay, conditions: first compound 0.1 µM
row,Cell Line,relative viability
1,NCI-H2126,0.591
2,EPLC-272H,0.219
3,NCI-H1755,0.687
4,NCI-H2023,0.293
5,NCI-H1650,0.448
6,NCI-H2342,0.561
7,NCI-H1975,0.631
8,NCI-H1437,0.85
9,HOP-62,0.938
10,HCC-44,0.361
11,BEN,0.267
12,NCI-H661,0.559
13,NCI-H1651,0.725
14,SW 1573,0.591
15,LK-2,0.21
16,NCI-H2405,0.637
17,ChaGo-K-1,0.549

row,Cell Line,relative viability
1,NCI-H1355,0.341
2,HCC-366,0.843
3,NCI-H1915,0.639
4,NCI-H838,0.404
5,A-427,0.404
6,NCI-H2009,0.483
7,ABC-1,0.435
8,SK-LU-1,0.342
9,NCI-H522,0.635
10,COR-L23,0.777
11,NCI-H1563,0.757
12,NCI-H1792,0.616
13,NCI-H1395,0.651
14,NCI-H520,0.282
15,NCI-H2228,0.634
16,SW 900,0.545
17,SK-MES-1,0.456

# Same assay, conditions: first compound 0.3162 µM
row,Cell Line,relative viability
1,NCI-H2126,0.856
2,EPLC-272H,0.275
3,NCI-H1755,0.586
4,NCI-H2023,0.408
5,NCI-H1623,0.521
6,NCI-H1793,0.316
7,NCI-H2342,0.577
8,H3255,0.583
9,NCI-H1975,0.4
10,PC-14,0.741
11,NCI-H1437,0.855
12,HOP-62,0.678
13,NCI-H661,0.658
14,NCI-H1651,0.698
15,PC-3 [JPC-3],0.724
16,SW 1573,0.564
17,LK-2,0.228

row,Cell Line,relative viability
1,NCI-H1648,0.335
2,NCI-H1993,0.607
3,ChaGo-K-1,0.419
4,NCI-H1355,0.386
5,HCC-366,0.674
6,NCI-H1915,0.471
7,A-427,0.453
8,NCI-H2009,0.389
9,ABC-1,0.539
10,SK-LU-1,0.245
11,NCI-H522,0.638
12,COR-L23,0.579
13,NCI-H1563,0.734
14,NCI-H520,0.327
15,NCI-H2228,0.634
16,SW 900,0.535
17,SK-MES-1,0.548

# Same assay, conditions: first compound 1 µM
row,Cell Line,relative viability
1,NCI-H2126,0.651
2,EPLC-272H,0.243
3,NCI-H1755,0.632
4,NCI-H2023,0.316
5,NCI-H1623,0.419
6,NCI-H1650,0.537
7,NCI-H1793,0.3
8,NCI-H2342,0.643
9,H3255,0.565
10,NCI-H1975,0.564
11,PC-14,0.767
12,NCI-H1437,0.875
13,HOP-62,0.751
14,HCC-44,0.426
15,BEN,0.265
16,LOU-NH91,0.726
17,NCI-H661,0.688
18,NCI-H1651,0.829
19,PC-3 [JPC-3],0.731
20,SW 1573,0.464
21,LK-2,0.158
22,NCI-H2405,0.621

row,Cell Line,relative viability
1,NCI-H1648,0.259
2,NCI-H1993,0.494
3,ChaGo-K-1,0.487
4,NCI-H1355,0.351
5,HCC-366,0.418
6,NCI-H1915,0.533
7,NCI-H838,0.436
8,A-427,0.466
9,NCI-H2009,0.325
10,ABC-1,0.474
11,SK-LU-1,0.269
12,NCI-H522,0.697
13,COR-L23,0.646
14,NCI-H1563,0.723
15,NCI-H1792,0.704
16,NCI-H1395,0.659
17,COR-L 105,0.582
18,NCI-H520,0.214
19,NCI-H2228,0.474
20,SW 900,0.433
21,SK-MES-1,0.444

# Compound: CCCS(=O)(=O)Nc1ccc(F)c(C(=O)c2c[nH]c3ncc(-c4ccc(Cl)cc4)cc23)c1F [Vemurafenib] + Cc1cc(Nc2cc(N3CCN(C)CC3)nc(Sc3ccc(NC(=O)C4CC4)cc3)n2)n[nH]1 [Tozasertib] (partner 0.1 µM)
# Assay: as above
# Settings: first compound 0.03162 µM
# Outline: as §1
row,Cell Line,relative viability
1,NCI-H2126,0.812
2,EPLC-272H,0.277
3,NCI-H1755,0.516
4,NCI-H2023,0.335
5,NCI-H1623,0.409
6,NCI-H1793,0.288
7,NCI-H2342,0.477
8,H3255,0.603
9,NCI-H1975,0.688
10,PC-14,0.557
11,NCI-H1437,0.404
12,HOP-62,0.418
13,HCC-44,0.829
14,BEN,0.515
15,LOU-NH91,0.599
16,NCI-H661,0.325
17,NCI-H1651,0.605
18,PC-3 [JPC-3],0.853
19,SW 1573,0.162
20,LK-2,0.158

row,Cell Line,relative viability
1,NCI-H2405,0.756
2,NCI-H1648,0.489
3,NCI-H1993,0.473
4,ChaGo-K-1,0.22
5,NCI-H1355,0.545
6,HCC-366,0.0795
7,NCI-H1915,0.436
8,NCI-H838,0.233
9,A-427,0.194
10,NCI-H2009,0.698
11,ABC-1,0.151
12,SK-LU-1,0.255
13,NCI-H522,0.609
14,COR-L23,0.14
15,NCI-H1395,0.722
16,COR-L 105,0.394
17,NCI-H520,0.529
18,NCI-H2228,0.228
19,SW 900,0.455
20,SK-MES-1,0.831

# Same assay, conditions: first compound 0.1 µM
row,Cell Line,relative viability
1,NCI-H2126,0.786
2,EPLC-272H,0.106
3,NCI-H1755,0.562
4,NCI-H2023,0.241
5,NCI-H1650,0.277
6,NCI-H2342,0.478
7,NCI-H1975,0.635
8,NCI-H1437,0.381
9,HOP-62,0.372
10,HCC-44,0.917
11,BEN,0.52
12,NCI-H661,0.334
13,NCI-H1651,0.594
14,SW 1573,0.192
15,LK-2,0.177
16,NCI-H2405,0.708

row,Cell Line,relative viability
1,ChaGo-K-1,0.195
2,NCI-H1355,0.559
3,HCC-366,0.0611
4,NCI-H1915,0.439
5,NCI-H838,0.293
6,A-427,0.203
7,NCI-H2009,0.644
8,ABC-1,0.174
9,SK-LU-1,0.283
10,NCI-H522,0.471
11,COR-L23,0.202
12,NCI-H1395,0.815
13,NCI-H520,0.411
14,NCI-H2228,0.234
15,SW 900,0.557
16,SK-MES-1,0.915

# Same assay, conditions: first compound 0.3162 µM
row,Cell Line,relative viability
1,EPLC-272H,0.281
2,NCI-H1755,0.555
3,NCI-H2023,0.273
4,NCI-H1623,0.452
5,NCI-H1793,0.323
6,NCI-H2342,0.629
7,H3255,0.644
8,NCI-H1975,0.45
9,PC-14,0.376
10,NCI-H1437,0.396
11,HOP-62,0.332
12,NCI-H661,0.396
13,NCI-H1651,0.636
14,PC-3 [JPC-3],0.904
15,SW 1573,0.193
16,LK-2,0.187

row,Cell Line,relative viability
1,NCI-H1648,0.962
2,NCI-H1993,0.569
3,ChaGo-K-1,0.257
4,NCI-H1355,0.56
5,HCC-366,0.0563
6,NCI-H1915,0.411
7,A-427,0.238
8,NCI-H2009,0.625
9,ABC-1,0.181
10,SK-LU-1,0.294
11,NCI-H522,0.592
12,COR-L23,0.181
13,NCI-H520,0.435
14,NCI-H2228,0.244
15,SW 900,0.585
16,SK-MES-1,0.829

# Same assay, conditions: first compound 1 µM
row,Cell Line,relative viability
1,NCI-H2126,0.809
2,EPLC-272H,0.182
3,NCI-H1755,0.53
4,NCI-H2023,0.18
5,NCI-H1623,0.41
6,NCI-H1650,0.272
7,NCI-H1793,0.264
8,NCI-H2342,0.417
9,H3255,0.619
10,NCI-H1975,0.238
11,PC-14,0.551
12,NCI-H1437,0.363
13,HOP-62,0.389
14,HCC-44,0.763
15,BEN,0.426
16,LOU-NH91,0.705
17,NCI-H661,0.358
18,NCI-H1651,0.57
19,PC-3 [JPC-3],0.881
20,SW 1573,0.26
21,LK-2,0.155

row,Cell Line,relative viability
1,NCI-H2405,0.717
2,NCI-H1648,0.477
3,NCI-H1993,0.571
4,ChaGo-K-1,0.204
5,NCI-H1355,0.435
6,HCC-366,0.0677
7,NCI-H1915,0.342
8,NCI-H838,0.285
9,A-427,0.227
10,NCI-H2009,0.648
11,ABC-1,0.202
12,SK-LU-1,0.298
13,NCI-H522,0.631
14,COR-L23,0.143
15,NCI-H1395,0.779
16,COR-L 105,0.433
17,NCI-H520,0.415
18,NCI-H2228,0.21
19,SW 900,0.435
20,SK-MES-1,0.751

# Compound: CCCS(=O)(=O)Nc1ccc(F)c(C(=O)c2c[nH]c3ncc(-c4ccc(Cl)cc4)cc23)c1F [Vemurafenib] + NC(=O)Nc1cc(-c2cccc(F)c2)sc1C(=O)N[C@H]1CCCNC1 [AZD7762] (partner 0.2 µM)
# Assay: as above
# Settings: first compound 0.03162 µM
# Outline: as §1
row,Cell Line,relative viability
1,NCI-H2126,0.971
2,EPLC-272H,0.251
3,NCI-H1755,0.483
4,NCI-H1793,0.445
5,NCI-H2342,0.462
6,H3255,0.843
7,NCI-H1975,0.689
8,PC-14,0.272
9,NCI-H1437,1.14
10,HOP-62,0.551
11,HCC-44,0.945

# Reference: the supplement of paper PMC10307832
